Experiments:
human DHODH = human DHODH (Homo sapiens (Human), UniProt Q02127); assay: DHODH Enzymatic Assay; format: biochemical; conditions: purified human DHODH, DCIP absorbance, end-point mode; read-out: hDHODH IC50
How it was run: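 Purified human DHODH in […] HEPES pH 7.5, 150 mM NaCl, 0.5 mM EDTA, 0.1% Triton X-100; reaction started with substrate mix of 20 mM DHO, 5 mM CoQ6, 1 mM DCIP. End-point read as DCIP reduction (absorbance ~600 nm) after brequinar quench.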

[1] = test system: MOLM-13 cells (human acute myeloid leukemia cells); assay: MOLM-13 Cellular Assay; format: cell-based; conditions: 72 hours exposure, cell viability by CellTiter-Glo
How it was run: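 MOLM-13 AML cells, seeded at 5,000/well in RPMI 1640 with 10% FBS, were treated with compounds right after seeding for 72 h at 37 °C, 5% CO2. Viability read by CellTiter-Glo luminescence.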

Sequence of human DHODH (Q02127 whole entry): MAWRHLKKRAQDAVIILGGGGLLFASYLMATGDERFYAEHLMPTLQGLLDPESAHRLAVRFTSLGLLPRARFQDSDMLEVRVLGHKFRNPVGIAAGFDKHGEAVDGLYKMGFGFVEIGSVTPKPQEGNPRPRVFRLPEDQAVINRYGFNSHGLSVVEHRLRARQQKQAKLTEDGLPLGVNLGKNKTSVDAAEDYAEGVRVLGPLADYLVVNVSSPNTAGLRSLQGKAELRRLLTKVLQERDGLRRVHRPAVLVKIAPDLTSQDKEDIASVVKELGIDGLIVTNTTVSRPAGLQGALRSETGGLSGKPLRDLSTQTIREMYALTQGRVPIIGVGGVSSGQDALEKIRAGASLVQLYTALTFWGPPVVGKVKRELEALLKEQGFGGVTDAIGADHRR

Row | Compound | IC50 (human DHODH) | IC50 ([1]; Homo sapiens, MOLM-13, 72 h) | IC50 [1]
1 | C=C(C)c1cn(-c2cccc(OCCO)c2Cl)c(=O)c2cc(F)c(-n3nc(CO)n(CC)c3=O)cc12 [Example 65, 2-(2-Chloro-3-(2-hydroxyethoxy)phenyl)-6-(4-ethyl-3-(hydroxymethyl)-5-oxo-4,5-dihydro-1H-1,2,4-triazol-1-yl)-7-fluoro-4-(prop-1-en-2-yl)isoquinolin-1(2H)-one] | 1.65 nM | 20 nM | –
2 | C=C(C)c1cn(-c2ccccc2F)c(=O)c2cc(F)c(-n3nc(CO)n(CC)c3=O)cc12 [Example 66, 6-(4-Ethyl-3-(hydroxymethyl)-5-oxo-4,5-dihydro-1H-1,2,4-triazol-1-yl)-7-fluoro-2-(2-fluorophenyl)-4-(prop-1-en-2-yl)isoquinolin-1(2H)-one] | < 0.169 nM | 0.3 nM | –
3 | CCn1c(CO)nn(-c2cc3c(C(C)C)cn(-c4cc(F)ccc4C)c(=O)c3cc2F)c1=O [Example 67, 6-(4-Ethyl-3-(hydroxymethyl)-5-oxo-4,5-dihydro-1H-1,2,4-triazol-1-yl)-7-fluoro-2-(5-fluoro-2-methylphenyl)-4-isopropylisoquinolin-1(2H)-one] | 0.605 nM | 0.9 nM | –
4 | CCn1c(CO)nn(-c2cc3c(C(C)C)cn(-c4cc(F)ccc4F)c(=O)c3cc2F)c1=O [Example 68, 2-(2,5-Difluorophenyl)-6-(4-ethyl-3-(hydroxymethyl)-5-oxo-4,5-dihydro-1H-1,2,4-triazol-1-yl)-7-fluoro-4-isopropylisoquinolin-1(2H)-one] | 2.2 nM | 3 nM | –
5 | CCn1c(CO)nn(-c2cc3c(C(C)C)cn(-c4c(C)cccc4F)c(=O)c3cc2F)c1=O [Example 69, 6-(4-Ethyl-3-(hydroxymethyl)-5-oxo-4,5-dihydro-1H-1,2,4-triazol-1-yl)-7-fluoro-2-(2-fluoro-6-methylphenyl)-4-isopropylisoquinolin-1(2H)-one] | 0.435 nM | 0.7 nM | –
6 | C=C(C)c1cn(-c2cccc(OC)c2Cl)c(=O)c2cc(F)c(-n3nc(CO)n(CC)c3=O)cc12 [Example 70, 2-(2-Chloro-3-methoxyphenyl)-6-(4-ethyl-3-(hydroxymethyl)-5-oxo-4,5-dihydro-1H-1,2,4-triazol-1-yl)-7-fluoro-4-(prop-1-en-2-yl)isoquinolin-1(2H)-one] | 0.24 nM | 0.4 nM | –
7 | C=C(C)c1cn(-c2c(C)cnc(OC)c2C)c(=O)c2cc(F)c(-n3nc(CO)n(CC)c3=O)cc12 [Example 71, 6-(4-Ethyl-3-(hydroxymethyl)-5-oxo-4,5-dihydro-1H-1,2,4-triazol-1-yl)-7-fluoro-2-(2-methoxy-3,5-dimethylpyridin-4-yl)-4-(prop-1-en-2-yl)isoquinolin-1(2H)-one] | 2.02 nM | 10 nM | –
8 | C=C(C)c1cn(-c2cc(F)ccc2F)c(=O)c2cc(F)c(-n3nc(CO)n(CC)c3=O)cc12 [Example 72, 2-(2,5-Difluorophenyl)-6-(4-ethyl-3-(hydroxymethyl)-5-oxo-4,5-dihydro-1H-1,2,4-triazol-1-yl)-7-fluoro-4-(prop-1-en-2-yl)isoquinolin-1(2H)-one] | 0.946 nM | 2 nM | –
9 | C=C(C)c1cn(-c2c(C)cccc2F)c(=O)c2cc(F)c(-n3nc(CO)n(CC)c3=O)cc12 [Example 73, 6-(4-Ethyl-3-(hydroxymethyl)-5-oxo-4,5-dihydro-1H-1,2,4-triazol-1-yl)-7-fluoro-2-(2-fluoro-6-methylphenyl)-4-(prop-1-en-2-yl)isoquinolin-1(2H)-one] | 0.562 nM | 0.7 nM | –
10 | CCn1c(CO)nn(-c2cc3c(C(C)C)cn(-c4cccc(F)c4C)c(=O)c3cc2F)c1=O [Example 74, 6-(4-Ethyl-3-(hydroxymethyl)-5-oxo-4,5-dihydro-1H-1,2,4-triazol-1-yl)-7-fluoro-2-(3-fluoro-2-methylphenyl)-4-isopropylisoquinolin-1(2H)-one] | 2.24 nM | 7 nM | –
11 | CCn1c(CO)nn(-c2cc3c(C(C)C)cn(-c4cc(C)ccc4C)c(=O)c3cc2F)c1=O [Example 75, 2-(2,5-Dimethylphenyl)-6-(4-ethyl-3-(hydroxymethyl)-5-oxo-4,5-dihydro-1H-1,2,4-triazol-1-yl)-7-fluoro-4-isopropylisoquinolin-1(2H)-one] | 0.58 nM | 1 nM | –
12 | C=C(C)c1cn(-c2ccc(F)cc2C)c(=O)c2cc(F)c(-n3nc(CO)n(CC)c3=O)cc12 [Example 76, 6-(4-Ethyl-3-(hydroxymethyl)-5-oxo-4,5-dihydro-1H-1,2,4-triazol-1-yl)-7-fluoro-2-(4-fluoro-2-methylphenyl)-4-(prop-1-en-2-yl)isoquinolin-1(2H)-one] | 1.5 nM | 4 nM | –
13 | CCn1c(CO)nn(-c2cc3c(C(C)C)cn(-c4ccccc4F)c(=O)c3cc2F)c1=O [Example 77, 6-(4-Ethyl-3-(hydroxymethyl)-5-oxo-4,5-dihydro-1H-1,2,4-triazol-1-yl)-7-fluoro-2-(2-fluorophenyl)-4-isopropylisoquinolin-1(2H)-one] | 1.86 nM | 3 nM | –
14 | CCn1c(CO)nn(-c2cc3c(C(C)C)cn(-c4c(C)cnc(OC)c4C)c(=O)c3cc2F)c1=O [Example 78, 6-(4-Ethyl-3-(hydroxymethyl)-5-oxo-4,5-dihydro-1H-1,2,4-triazol-1-yl)-7-fluoro-4-isopropyl-2-(2-methoxy-3,5-dimethylpyridin-4-yl)isoquinolin-1(2H)-one] | 2.34 nM | 20 nM | –
15 | C=C(C)c1cn(-c2ccccc2C)c(=O)c2cc(C)c(-n3nc(CO)n(CC)c3=O)cc12 [Example 79, 6-(4-Ethyl-3-(hydroxymethyl)-5-oxo-4,5-dihydro-1H-1,2,4-triazol-1-yl)-7-methyl-4-(prop-1-en-2-yl)-2-(o-tolyl)isoquinolin-1(2H)-one] | 17.1 nM | 10 nM | –
16 | CCn1c(CO)nn(-c2cc3c(C(C)C)cn(-c4c(F)ccc(OC)c4Cl)c(=O)c3cc2F)c1=O [Example 80, 2-(2-Chloro-6-fluoro-3-methoxyphenyl)-6-(4-ethyl-3-(hydroxymethyl)-5-oxo-4,5-dihydro-1H-1,2,4-triazol-1-yl)-7-fluoro-4-isopropylisoquinolin-1(2H)-one] | 0.273 nM | 0.3 nM | –
17 | C=C(c1cn(-c2ccccc2C)c(=O)c2cc(F)c(-n3nc(CO)n(CC)c3=O)cc12)C(F)(F)F [Example 81, 6-(4-Ethyl-3-(hydroxymethyl)-5-oxo-4,5-dihydro-1H-1,2,4-triazol-1-yl)-7-fluoro-2-(o-tolyl)-4-(3,3,3-trifluoroprop-1-en-2-yl)isoquinolin-1(2H)-one] | 0.226 nM | 0.3 nM | –
18 | C=C(C)c1cn(-c2ccccc2OC)c(=O)c2cc(F)c(-n3nc(CO)n(CC)c3=O)cc12 [Example 83, 6-(4-Ethyl-3-(hydroxymethyl)-5-oxo-4,5-dihydro-1H-1,2,4-triazol-1-yl)-7-fluoro-2-(2-methoxyphenyl)-4-(prop-1-en-2-yl)isoquinolin-1(2H)-one] | 0.444 nM | ≤ 0.2 nM | 0.2 nM
19 | C=C(C)c1cn(-c2cc(C)cnc2Cl)c(=O)c2cc(F)c(-n3nc(CO)n(CC)c3=O)cc12 [Example 84, 2-(2-Chloro-5-methylpyridin-3-yl)-6-(4-ethyl-3-(hydroxymethyl)-5-oxo-4,5-dihydro-1H-1,2,4-triazol-1-yl)-7-fluoro-4-(prop-1-en-2-yl)isoquinolin-1(2H)-one] | 6.58 nM | 70 nM | –
20 | C=C(C)c1cn(-c2cc(OC)ncc2F)c(=O)c2cc(F)c(-n3nc(CO)n(CC)c3=O)cc12 [Example 85, 6-(4-Ethyl-3-(hydroxymethyl)-5-oxo-4,5-dihydro-1H-1,2,4-triazol-1-yl)-7-fluoro-2-(5-fluoro-2-methoxypyridin-4-yl)-4-(prop-1-en-2-yl)isoquinolin-1(2H)-one] | 6.55 nM | 20 nM | –
21 | C=C(C)c1cn(-c2cccc(F)c2C)c(=O)c2cc(F)c(-n3nc(CO)n(CC)c3=O)cc12 [Example 86, 6-(4-Ethyl-3-(hydroxymethyl)-5-oxo-4,5-dihydro-1H-1,2,4-triazol-1-yl)-7-fluoro-2-(3-fluoro-2-methylphenyl)-4-(prop-1-en-2-yl)isoquinolin-1(2H)-one] | 1.19 nM | 3 nM | –
22 | C=C(C)c1cn(-c2cc(C)ccc2C)c(=O)c2cc(F)c(-n3nc(CO)n(CC)c3=O)cc12 [Example 87, 2-(2,5-Dimethylphenyl)-6-(4-ethyl-3-(hydroxymethyl)-5-oxo-4,5-dihydro-1H-1,2,4-triazol-1-yl)-7-fluoro-4-(prop-1-en-2-yl)isoquinolin-1(2H)-one] | 0.292 nM | 0.9 nM | –
23 | CCc1ccccc1-n1cc(C(C)C)c2cc(-n3nc(CO)n(CC)c3=O)c(F)cc2c1=O [Example 89, 6-(4-Ethyl-3-(hydroxymethyl)-5-oxo-4,5-dihydro-1H-1,2,4-triazol-1-yl)-2-(2-ethylphenyl)-7-fluoro-4-isopropylisoquinolin-1(2H)-one] | 1.21 nM | 2 nM | –
24 | CCn1c(CO)nn(-c2cc3c(C(C)C)cn(-c4cc(OC)ncc4F)c(=O)c3cc2F)c1=O [Example 91, 6-(4-Ethyl-3-(hydroxymethyl)-5-oxo-4,5-dihydro-1H-1,2,4-triazol-1-yl)-7-fluoro-2-(5-fluoro-2-methoxypyridin-4-yl)-4-isopropylisoquinolin-1(2H)-one] | 6.05 nM | 30 nM | –
25 | [2H]C([2H])([2H])c1ccccc1-n1cc(C(C)C)c2cc(-n3nc(CO)n(CC)c3=O)c(F)cc2c1=O [Example 93, 6-(4-Ethyl-3-(hydroxymethyl)-5-oxo-4,5-dihydro-1H-1,2,4-triazol-1-yl)-7-fluoro-4-isopropyl-2-(2-(methyl-d3)phenyl)isoquinolin-1(2H)-one] | 0.463 nM | 0.6 nM | –

Source: patent US11505536B2, “Dihydroorotate dehydrogenase inhibitors” (Janssen Biotech, Inc., priority 2019, dated 2022)
